Literature values in WO2006030898A1, “Aldose reductase inhibitor” (Suntory Ltd, priority 2004, dated 2006).

Molecular target: aldose reductase (Homo sapiens, UniProt P15121)
Settings: flavonoid glycosides; no own test described

## O=c1c(O[C@@H]2O[C@H](CO)[C@@H](O)[C@H](O)[C@H]2O)c(-c2ccc(O)c(O)c2)oc2cc(O)cc(O)c12 [isoquercitrin]
  aldose reductase inhibitory action (in words): have an aldose reductase inhibitory action
